Test results reported in patent US20090192192A1, “INHIBITORS OF BIOFILM FORMATION OF GRAM-POSITIVE AND GRAM-NEGATIVE BACTERIA” (priority 2007, published 2009).

Key:
Type in all cases: cell-based
[1] = tested on: Staphylococcus epidermidis RP62A; assay: MBEC assay, biofilm formation of S. epidermidis RP62A; details: read-out: S. epidermidis RP62A log R (log reduction); for log reduction at 10 µM: compound concentration 10 μM; for log reduction at 100 µM: compound concentration 100 μM
Experimental: (§1) The compound to be tested was dissolved in DMSO to obtain a concentration that was 100 times that of the final concentration required (1 mM for the 10 μM assay and 10 mM for the 100 μM assay). 1.5 μL of the above solution was placed into each well of a 96 well plate (final volume in each well=150 μL, final DMSO concentration of 1% (v/v)).
(§2) To grow the organism and form a biofilm, a cryogenic stock of the test organism (at −70° C.) was used. A first sub-culture was streaked out onto TSA (tryptic soy agar), upon which the plate was incubated at 35±2° C. for 24 hours and stored wrapped in parafilm at 4° C. afterwards. From this first sub-culture, a second sub-culture was streaked out onto TSA. The plate was incubated at 35±2° C. for 24 hours. The second sub-culture was used within 24 hours starting from the time it was first removed from incubation. Using the second sub-culture an inoculum in 3 mL sterile water that matches a 0.5 McFarland Standard (1.5×10^8 cells per mL) was created in a glass test tube using a sterile cotton swab. 2.2 mL of this solution was diluted in 22 mL 100% TSB (tryptic soy broth) medium to a cell density of approximately 6.0×10^5 cells per mL. The diluted organism was inverted 3-5 times to achieve uniform mixing of the organism. One sample (100 μl) of the diluted organism was used for an inoculum check by serially diluting and spot plating on TSA.
(§3) To prepare a challenge plate, […] of the diluted organism was added to each well of a 96 well plate except the sterility control wells. The test compounds were added to the wells to make up final concentrations of 10 μM and […] (1.5 μL/well) in the designated location in the test plate. 128.5 μL of 100% universal neutralizer (1% Tween 80 in Cation Adjusted Mueller Hinton Broth, CAMHB) was placed in each of the wells. 130 μL of media was added to the growth control wells. 128.5 μL of media+1.5 μL of DMSO were added to a second set of growth control wells. 150 μL of media was added to the sterility controls. Each sample was run in triplicate. The plate was covered by a lid with a peg per well and wrapped in parafilm and placed on a shaker in a humidified incubator (GeneVac) at 35±+2° C. for 24 hours set at 110 rpm.
(§4) Rinse plate(s) of 0.9% saline (200 μL per well) were prepared in a sterile 96 well microtitre plate. Lid-associated pegs were rinsed in 0.9% saline for approximately 1-2 minutes. The peg lid was transferred to the recovery media (1.0% Tween 80 in CAMHB) then sonicated for 30 minutes to dislodge surviving biofilm. Following sonication, 100 μL from each well of the 96 well plate was placed into the first 12 wells of the first row of a 96 well microtiter plate. 180 μl of 0.9% sterile saline was placed in the remaining rows. A serial dilution (10^0-10^7) was prepared by moving 20 μl down each of the 8 rows. 20 μl from each well was removed and spot plated on a prepared TSA. In the remaining recovery plate, 100 μl of fresh growth media (1.0% Tween 80 in CAMHB) was placed in each well to replace the amount removed. The recovery plate was covered with a regular lid and incubated at 35±2° C. for 24 hours and read visually to confirm antimicrobial activity of the test compounds.
(§5) The compounds of the present disclosure have been tested regarding their efficiency to inhibit biofilm formation of Staphylococcus aureus U of C#18 (MRSA), Staphylococcus aureus 456 (MRSA), Staphylococcus epidermidis RP62A, and Pseudomonas aeruginosa PAO1.

[2] = tested on: Staphylococcus aureus U of C#18 (MRSA); assay: MBEC assay, biofilm formation of S. aureus U of C #18 (MRSA); details: read-out: S. aureus U of C #18 (MRSA) log R (log reduction); for log reduction at 10 µM: compound concentration 10 μM; for log reduction at 100 µM: compound concentration 100 μM
Experimental: as §1, §2, §3, §4, §5

[3] = tested on: Staphylococcus aureus 456 (MRSA); assay: MBEC assay, biofilm formation of S. aureus 456 (MRSA); details: read-out: S. aureus 456 (MRSA) log R (log reduction); for log reduction at 10 µM: compound concentration 10 μM; for log reduction at 100 µM: compound concentration 100 μM
Experimental: as §1, §2, §3, §4, §5

[4] = tested on: Pseudomonas aeruginosa PAO1; assay: MBEC assay, biofilm formation of P. aeruginosa PAO1; details: for IC50: biofilm formation, read-out: P. aeruginosa PAO1 inhibitory concentration IC50; for inhibition at 100 µM: compound concentration 100 μM
How it was run: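 Peg-lid biofilms were grown 24 h at 35±2 °C, 110 rpm, from inoculum diluted to ~6.0×10^5 cells per mL in TSB, with compound at 10 μM or 100 μM final (1% DMSO) in 1% Tween 80/CAMHB. Pegs were rinsed, then sonicated 30 min into recovery medium; survivors were spot-plated, and recovery plates were read visually after 24 h; triplicates.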

[5] = tested on: Staphylococcus aureus 398 (MRSA); assay: MBEC assay, biofilm formation of S. aureus 398 (MRSA)
Experimental: as §1
as §2, with “2.2 mL of this solution was diluted in 22 mL 100% TSB (tryptic soy broth) medium to a cell density of approximately 6.0×10^5 cells per mL. The diluted organism was inverted 3-5 times to achieve uniform mixing of the organism. One sample (100 μl) of the diluted organism was used for an inoculum check by serially diluting and spot plating on TSA.” left out
Rinse plate(s) of 0.9% saline (200 μL per well) were prepared in a sterile 96 well microtitre plate. […] The recovery plate was covered with a regular lid and incubated at 35±2° C. for 24 hours and read visually to confirm antimicrobial activity of the test compounds. […]

SMILES	IC50 [4]	log reduction at 10 µM [1]	log reduction at 100 µM [1]	log reduction at 10 µM [2]	log reduction at 100 µM [2]	log reduction at 10 µM [3]	log reduction at 100 µM [3]	inhibition at 100 µM [4]	S. aureus 398 (MRSA) log R (log reduction) ([5]; compound concentration 10 μM)	S. aureus 398 (MRSA) log R (log reduction) ([5]; compound concentration 100 μM)	inhibition at 100 µM ([4]; class symbols)
CCCCCCCCOCCC(=O)Nc1ccc(F)cc1C(F)(F)F [Example 3, N-(4-fluoro-2-(trifluoromethyl)phenyl)-3-(octyloxy)propanamide]	19 µM	0	0	0.11	0.19	0.19	0.49	–	–	–	–
CCCCCCCCCCC(=O)N1CCCC(C(=O)N(CC)CC)C1 (centres unmarked) [Example 11, N,N-diethyl-1-undecanoylpiperidine-3-carboxamide]	–	0.77	1.48	0.84	0.88	–	–	75%	–	–	–
CCCCCCCCCCNC(=O)N1CCCC(C(=O)N(CC)CC)C1 (centres unmarked) [Example 10, N^1-decyl-N^3,N^3-diethylpiperidine-1,3-dicarboxamide]	–	1.33	1.28	1.17	0.91	–	–	84%	1.38	2.54	–
CCCCCCCCCCCCC(=O)N1CCCC(C(=O)N(CC)CC)C1 (centres unmarked) [Example 12, N,N-diethyl-1-tridecanoylpiperidine-3-carboxamide]	–	1.42	2.47	0.08	1.57	–	–	85%	–	–	–
CCCCCCCCCC(=O)NC(=O)Nc1ccnn1CC [Example 4, N-(1-ethylpyrazol-5-ylcarbamoyl)decanamide]	11 µM	0	0.78	1.13	1.49	1.14	3.28	–	–	–	–
CCCCCCNC(=O)Nc1cc(C)nn1C [Example 41, 1-(1,3-dimethylpyrazol-5-yl)-3-hexylurea]	–	–	–	–	–	–	–	–	–	–	< 20%
CCCCNC(=O)Nc1cc(C2CC2)nn1C [Example 39, 1-butyl-3-(3-cyclopropyl-1-methylpyrazol-5-yl)urea]	–	–	–	–	–	–	–	–	–	–	< 20%
CCCCCCCCCCNC(=O)Nc1nc(C(C)(C)C)cs1 [Example 78, 1-(4-tert-butylthiazol-2-yl)-3-decylurea]	–	–	–	–	–	–	–	–	–	–	20 to 50%
CCCCCCCCCC(=O)NC(=O)N(C)c1ccc(F)cc1 [Example 95, N-((4-fluorophenyl)(methyl)carbamoyl)decanamide]	–	–	–	–	–	–	–	–	–	–	> 50%
CCCCCCCCCOCC(=O)Nc1ccnn1CC [Example 105, N-(1-ethylpyrazol-5-yl)-2-(nonyloxy)acetamide]	–	–	–	–	–	–	–	–	–	–	> 50%
CCCCCCCCCCNC(=O)Nc1cc(C)nn1-c1ccccc1 [Example 74, 1-decyl-3-(3-methyl-1-phenylpyrazol-5-yl)urea]	–	–	–	–	–	–	–	–	–	–	< 20%

More lines, main results first:

IC50 [4]	SMILES	log reduction at 10 µM [1]	log reduction at 100 µM [1]	log reduction at 10 µM [2]	log reduction at 100 µM [2]	log reduction at 10 µM [3]	log reduction at 100 µM [3]	inhibition at 100 µM [4]	S. aureus 398 (MRSA) log R (log reduction) ([5]; compound concentration 10 μM)	S. aureus 398 (MRSA) log R (log reduction) ([5]; compound concentration 100 μM)	inhibition at 100 µM ([4]; class symbols)
27 µM	CCCCCCCCCOCC(=O)Nc1ccnn1C [Example 1, N-(1-methylpyrazol-5-yl)-2-(nonyloxy)acetamide]	0	0	0.4	0.77	0.26	1.18	–	–	–	–
12 µM	CCCCCCCCCCCC(=O)N1CCCC(C(=O)N(CC)CC)C1 (centres unmarked) [Example 2, 1-dodecanoyl-N,N-diethylpiperidine-3-carboxamide]	0	3.5	1.56	5.38	1.75	5.79	–	–	–	–
9 µM	CCCCCCCCCCNC(=O)N(C)c1ccccc1 [Example 6, 3-decyl-1-methyl-1-phenylurea]	0	4.45	0.72	1.08	1.61	2.3	–	–	–	–
3 µM	CCCCCCCCCCNC(=O)Nc1cc(C(C)(C)C)nn1C [Example 8, 1-(3-tert-butyl-1-methylpyrazol-5-yl)-3-decylurea]	0	0	0.26	0.8	0.42	1.04	–	–	–	–
12 µM	CCCCCCCCCCCC(=O)Nc1cc(C(C)(C)C)nn1C [Example 9, N-(3-tert-butyl-1-methylpyrazol-5-yl)dodecanamide]	0	0	0.42	0.46	0.65	1.06	–	–	–	–
24 µM	CCCCCCCCOCCC(=O)N(C)c1ccc(F)cc1 [Example 5, N-(4-fluorophenyl)-N-methyl-3-(octyloxy)propanamide]	0	0	-0.21	1.29	0.54	1.86	–	–	–	–
4 µM	CCCCCCCCCCNC(=O)N(C)[C@@H](C)c1ccccc1 [Example 7, (S)-3-decyl-1-methyl-1-(1-phenylethyl)urea]	0	0	0.84	1.12	0.53	1.26	–	–	–	–
